Assay results taken from patent US5952307A, “Basic α-aminoalkylphosphonate derivatives” (priority 1997, dated 1999).
Read-outs that look alike come from different tables or passages of the source.

Assays:
Type in all cases: biochemical
bovine trypsin [1] = target: T1, bovine trypsin (Bos taurus, UniProt P00760); test: Inactivation rate of bovine trypsin, incubation method; details: Table III; enzyme 0.06-0.5 μM, inhibitor 0.25-42 μM, 9% DMSO, 25° C.; NI = no inhibition
T1 sequence (P00760 24-246): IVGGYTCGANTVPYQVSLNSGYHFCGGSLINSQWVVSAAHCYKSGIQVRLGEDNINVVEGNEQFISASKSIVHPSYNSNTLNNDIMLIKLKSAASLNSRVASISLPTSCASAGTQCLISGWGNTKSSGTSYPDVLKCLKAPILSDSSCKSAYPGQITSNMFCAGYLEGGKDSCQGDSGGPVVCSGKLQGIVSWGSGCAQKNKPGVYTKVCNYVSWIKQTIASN

bovine trypsin [2] = target: T1, bovine trypsin; test: as above; details: for kobsd /[I] bovine trypsin: Table I, 0.1M Hepes, 0.01M CaCl2 pH 7.5, 25° C., 2% DMSO, substrate Z--Arg--SBzl, NI = no inhibition after 25 min; for kobs /[I] bovine trypsin: Table II, 0.13 μM trypsin, 0.25-42 μM inhibitor, 80 mM Hepes pH 7.5, 1 mM CaCl2, 8% DMSO, 25° C., NI = no inhibition
Protocol: (§1) Inactivation rates of serine proteases by aryl diesters of peptidyl derivatives of α-aminoalkylphosphonates were measured by the incubation method. An aliquot of inhibitor (25 or 50 μl) in Me2 SO was added to a buffered enzyme solution (0.01-2.3 μM) to initiate the inactivation. Aliquots (50 μl) were withdrawn at various intervals and the residual enzymatic activity was measured. Me2 SO concentration in the reaction mixture was 8-12% (v/v). A 0.1 M HEPES, 0.01 M CaCl2, pH 7.5 buffer was utilized for trypsin and trypsin-like enzymes. A 0.1 M HEPES, 0.5 M NaCl, pH 7.5, was utilized for the other serine proteases. Peptide thioesters or peptide nitroanilides with the appropriate sequences were used as substrates for various serine proteases. All peptide thioesters hydrolysis rates were measured with the assay mixture containing 4,4'-dithiodipyridine {ε324 =19800 M^-1 cm^-1; Grasetti & Murray, Arch. Biochem. Biophys. 1967, 119, 41-48}. Peptide 4-nitroanilide hydrolysis was measured at 410 nm {ε410 =8800 M^-1 cm^-1; Erlanger et al., Arch. Biochem. Biophys. 1961, 95, 271-278}. First order inactivation rate constants (Kobs) were obtained from plots of In vt /vo vs time, and the correlation coefficients were greater then 0.98.
(§2) ^a Inhibition constants were measured in 0.1M Hepes, 0.01M CaCl2
(§3) pH 7.5 for trypsin, granzymes A, and K, and in 0.1M Hepes, 10% glycerol,
(§4) 10 mM heparin, pH 7.5 for mast cell tryptase, and at 25° C. The
(§5) reaction mixtures contained 2% DMSO for trypsin, 7.6% for granzyme A, and
(§6) 7.1% for granzyme K and tryptase. The substrate was Z--Arg--SBzl for
(§7) granzymes and trypsin, and Z--Arg--SBzl or Z--Lys--SBzl for tryptase in
(§8) the presence of DTNB. The inhibitor # concentration ranged from 0.001 to
(§9) ^b NI, no inhibition after 25 min of incubation with enzyme.
(§10) ^a Enzyme was incubated with the inhibitor in 250 μL of the proper
(§11) buffer at 25° C. Specifically, the inhibition reation mixtures wer
composed of: 0.13 μM trypsin, 0.25-42 μM inhibitor in an 80 mM
(§12) Hepes, pH 7.5 buffer containing 1 mM CaCl2 and 8% DMSO; 0.07 μM
(§13) DMSO. Aliquots of 25 μL were withdrawn at various intervals and the
(§14) residual enzymatic activity was measured as described in experimental
(§15) section. The kobs values were calculated from pseudofirst-order
(§16) ^a Enzyme (0.06-0.5 μM) was incubated with the inhibitor (0.25-42
(§17) μM) in 250 μL of the proper buffer containing 9% DMSO at 25°
(§18) C. The final inhibition reaction mixtures are given in the footnote to
(§19) Table 1. Aliquots of 25 μL were withdrawn at various intervals and the […]

mast cell tryptase = mast cell tryptase (Homo sapiens, UniProt Q15661); test: Inactivation rate of mast cell tryptase, incubation method; details: for kobsd /[I] mast cell tryptase: Table I, 0.1M Hepes, 10% glycerol, 10 mM heparin, pH 7.5, 25° C., 7.1% DMSO, NI = no inhibition after 25 min of incubation; for kobs /[I] mast cell tryptase: 25° C., NI = no inhibition
Protocol: as §1, §2, §3, §4, §5, §6, §7, §8, §9, §10
(§20) containing 428 mM NaCl and 8% DMSO; 0.07 μM tryptase, 20-66 μM
inhibitor # in an mM Hepes, pH 7.5 buffer containing 8 mM heparin, 166 m
NaCl, 0.8 mM Mes, 9% glycerol and 8% DMSO; 0.42 μM factor Xa, 66 μM
as §13, §14, §15, §16, §17, §18, §19

rat granzyme K = target: T2, rat granzyme K (Rattus norvegicus, UniProt P49864); test: Inactivation rate of rat granzyme K, incubation method; details: Table I; 0.1M Hepes, 0.01M CaCl2 pH 7.5, 25° C., 7.1% DMSO, substrate Z--Arg--SBzl; NI = no inhibition after 25 min of incubation
T2 sequence (P49864 26-258): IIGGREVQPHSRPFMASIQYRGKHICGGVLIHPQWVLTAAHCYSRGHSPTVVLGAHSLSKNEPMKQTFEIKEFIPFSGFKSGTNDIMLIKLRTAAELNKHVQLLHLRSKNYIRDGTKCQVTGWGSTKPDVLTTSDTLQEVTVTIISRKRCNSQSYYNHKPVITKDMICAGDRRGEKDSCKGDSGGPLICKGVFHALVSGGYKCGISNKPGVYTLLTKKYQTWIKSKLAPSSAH
Protocol: as §1, §2, §3, §4, §5, §6, §7, §8, §9

human thrombin = target: T3, human thrombin (Homo sapiens, UniProt P00734); details: 25° C., NI = no inhibition
T3 construct: bovine trypsin, human thrombin
Protocol: as §1, with “271-278}.” for “271-278}. First order inactivation rate constants (Kobs) were obtained from plots of In vt /vo vs time, and the correlation coefficients were greater then 0.98.”
as §10, §11, §12
thrombin, 0.25-42 μM inhibitor in an 80 mM Hepes, pH 7.5 buffer
as §20, §13, §14, §15, §16, §17, §18, §19

human granzyme A = target: T4, human granzyme A (Homo sapiens, UniProt P12544); test: Inactivation rate of human granzyme A, incubation method; details: Table I; 0.1M Hepes, 0.01M CaCl2 pH 7.5, 25° C., 7.6% DMSO, substrate Z--Arg--SBzl
T4 sequence (P12544 29-262): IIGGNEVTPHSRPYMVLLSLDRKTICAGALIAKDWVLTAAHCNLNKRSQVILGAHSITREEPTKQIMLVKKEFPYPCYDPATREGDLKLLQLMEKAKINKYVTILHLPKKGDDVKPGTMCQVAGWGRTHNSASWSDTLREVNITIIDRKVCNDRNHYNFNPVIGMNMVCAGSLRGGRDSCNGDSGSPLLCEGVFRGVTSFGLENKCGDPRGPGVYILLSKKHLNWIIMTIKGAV
Protocol: as §1, §2, §3, §4, §5, §6, §7, §8, §9

[3] = Table II, 0.07 μM tryptase, 20-66 μM inhibitor, Hepes pH 7.5, heparin, 9% glycerol, 8% DMSO
[4] = Table II, 0.07 μM thrombin, 0.25-42 μM inhibitor, 80 mM Hepes pH 7.5, 428 mM NaCl, 8% DMSO
[5] = Table III, enzyme 0.06-0.5 μM, inhibitor 0.25-42 μM, 9% DMSO

Chain of mast cell tryptase (Q15661 31-275): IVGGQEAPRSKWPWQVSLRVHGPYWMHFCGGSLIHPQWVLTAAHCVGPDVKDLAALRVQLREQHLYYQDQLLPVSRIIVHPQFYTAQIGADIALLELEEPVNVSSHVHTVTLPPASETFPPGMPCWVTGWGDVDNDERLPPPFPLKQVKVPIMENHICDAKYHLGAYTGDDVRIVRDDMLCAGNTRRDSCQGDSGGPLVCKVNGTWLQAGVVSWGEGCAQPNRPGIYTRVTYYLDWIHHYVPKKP

Row | Compound | kobs /[I] bovine trypsin (bovine trypsin [1]) [M⁻¹ s⁻¹] | kobsd /[I] bovine trypsin (bovine trypsin [2]) [M⁻¹ s⁻¹] | kobs /[I] bovine trypsin (bovine trypsin [2]) | kobsd /[I] mast cell tryptase (mast cell tryptase) [M⁻¹ s⁻¹] | kobs /[I] mast cell tryptase (mast cell tryptase; [3]) [M⁻¹ s⁻¹] | kobsd /[I] rat granzyme K (rat granzyme K) [M⁻¹ s⁻¹] | kobs /[I] human thrombin (human thrombin; [4]) | kobsd /[I] human granzyme A (human granzyme A) [M⁻¹ s⁻¹] | kobs /[I] mast cell tryptase (mast cell tryptase; [5]) [M⁻¹ s⁻¹] | kobs /[I] human thrombin (human thrombin; [5]) [M⁻¹ s⁻¹]
1 | CC(C)(C)OC(=O)NC(CC(N)=O)C(=O)NC(CCCCN)P(=O)(Oc1ccccc1)Oc1ccccc1 (mixture of isomers) [Boc--Asn--Lys^P (OPh)2] | 3 |  |  |  |  |  |  |  |  | 
2 | N=C(N)c1ccc(C(NC(=O)C2CCCN2C(=O)CNS(=O)(=O)Cc2ccccc2)P(=O)(Oc2ccccc2)Oc2ccccc2)cc1 (mixture of isomers) [PhCH2 SO2 --Gly--Pro-(4-AmPhGly)^P (OPh)2] |  | 37060 ± 986 | 37,060 ± 986 M^-1 s^-1 | 2 | 2.0 ± 0.1 | 87 | 17,200 ± 128 M^-1 s^-1 | 3650 ± 180 |  | 
3 | CC(C)C(NC(=O)CCC(=O)O)C(=O)N1CCCC1C(=O)NC(CCCCN)P(=O)(Oc1ccccc1)Oc1ccccc1 (mixture of isomers) [Suc--Val--Pro--Lys^P (OPh)2] | 416 ± 28 |  |  |  |  |  |  |  | 0.6 | 3.4 ± 0.4
4 | N=C(N)c1ccc(C(NC(=O)C2CCCN2C(=O)CCc2ccccc2)P(=O)(Oc2ccccc2)Oc2ccccc2)cc1 (centres unmarked) [3-Phenylpropanoyl-Pro-(4-AmPhGly)^P (OPh)2] |  | 1520 ± 27 | 1,520 ± 27 M^-1 s^-1 | 0.4 | 0.4 | 50 ± 2 | 6,070 ± 68 M^-1 s^-1 | 1510 ± 217 |  | 
5 | CC(C)(C)OC(=O)N[C@H](Cc1ccccc1)C(=O)N1CCC[C@H]1C(=O)NC(c1ccc(C(=N)N)cc1)P(=O)(Oc1ccccc1)Oc1ccccc1.Cl (stereo partly drawn) [Boc--D--Phe--Pro-(4-AmPhGly)^P (OPh)2, Diphenyl N-(Boc-D-Phe-Pro)amino(4-amidinophenyl)methanephosphonate hydrochloride] |  | 130 | 2,200 M^-1 s^-1 | 0.4 |  | 56 ± 2 | 11,000 M^-1 s^-1 | 170 |  | 
6 | Cl.N=C(N)c1ccc(C(NC(=O)[C@@H]2CCCN2C(=O)OCc2ccccc2)P(=O)(Oc2ccccc2)Oc2ccccc2)cc1 (some centres unmarked) [Cbz--Pro-(4-AmPhGly)^P (OPh)2, Diphenyl N-(N-benzyloxycarbonylprolyl)amino(4-amidinophenyl)methanephosphonate hydrochloride] |  | 910 ± 81 | 910 ± 81 M⁻¹ s⁻¹ | 1.2 | 1 | 34 ± 4 | 640 ± 86 M⁻¹ s⁻¹ | 790 ± 17 |  | 
7 | C[C@H](NC(=O)[C@@H]1CCCN1C(=O)OCc1ccccc1)C(=O)NC(c1ccc(C(=N)N)cc1)P(=O)(Oc1ccccc1)Oc1ccccc1 (some centres unmarked) [Cbz--Pro--Ala-(4-AmPhGly)^P (OPh)2] |  | 240 ± 10 | 240 ± 10 M⁻¹ s⁻¹ | 1 | 1 ± 0 | 5 | 70 ± 2 M⁻¹ s⁻¹ | 380 ± 18 |  | 
8 | Cl.N=C(N)c1ccc(C(NC(=O)[C@@H]2CCCN2C(=O)c2ccccc2Oc2ccccc2)P(=O)(Oc2ccccc2)Oc2ccccc2)cc1 (some centres unmarked) [Diphenyl N-(N-(2-Phenoxybenzoylprolyl))amino(4-amidinophenyl)methanephosphonate Hydrochloride] |  | 7760 ± 310 | 7,760 ± 310 M^-1 s^-1 | 0.9 | 0.9 | 60 ± 5 | 42,400 ± 4190 M^-1 s^-1 | 610 ± 88 |  | 
9 | N=C(N)c1ccc(C(NC(=O)CCC(=O)O)P(=O)(Oc2ccccc2)Oc2ccccc2)cc1 (centres unmarked) [Suc-(4-AmPhGly)^P (OPh)2] |  | 45 ± 3 | 45 ± 3 M⁻¹ s⁻¹ | 0.2 | 0.2 | 0.3 ± 0.07 | 2 M⁻¹ s⁻¹ | 857 |  | 
10 | C[C@H](NC(=O)CCC(=O)O)C(=O)N[C@@H](C)C(=O)NC(c1ccc(C(=N)N)cc1)P(=O)(Oc1ccccc1)Oc1ccccc1 (some centres unmarked) [Suc--Ala--Ala-(4-AmPhGly)^P (OPh)2] |  | 640 ± 36 | 640 ± 36 M⁻¹ s⁻¹ | 0.7 | 0.7 | 0.3 ± 0.01 | 2 M⁻¹ s⁻¹ | 260 ± 15 |  | 
